Biological target: T1, N-terminal Xaa-Pro-Lys N-methyltransferase 1 (Homo sapiens, UniProt Q9BV86)
T1 sequence (Q9BV86 whole entry): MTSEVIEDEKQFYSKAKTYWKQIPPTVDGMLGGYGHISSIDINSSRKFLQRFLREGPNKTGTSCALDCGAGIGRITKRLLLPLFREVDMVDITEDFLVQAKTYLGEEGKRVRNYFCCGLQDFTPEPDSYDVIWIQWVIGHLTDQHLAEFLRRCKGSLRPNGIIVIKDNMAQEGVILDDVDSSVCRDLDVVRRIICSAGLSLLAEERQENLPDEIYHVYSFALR
Assay: Not found

N=C(N)NCCC[C@H](NC(=O)[C@H](CCCCN)N1CCC[C@H]1C(N)=O)C(=O)N[C@@H](Cc1c[nH]c2ccccc12)C(N)=O [US12479887, Compound 43] showed an IC50 of 95 nM.
